The results in this text go back to paper PMC12118576, “Selective Glycopolymer Inhibitors of Galectin-3: Supportive Anti-Cancer Agents Protecting Monocytes and Preserving Interferon-Gamma Function” (International Journal of Nanomedicine, 2025).

“And” between values parts separate entries of the source, which are not always exact repeats. Identical values can stand only once. Like-named read-outs stand apart in the source and are kept apart here.

One test concerns the target T1, human Gal-3 (Homo sapiens, UniProt P17931).
T1 construct: made in house; host or cells: E. coli Rosetta 2(DE3)pLysS
Nature of the test: Competitive ELISA-type assay: inhibition of Gal-3 binding to immobilized asialofetuin (ASF). Particulars: for Selectivity for Gal-3: IC50 for Gal-1/IC50 for Gal-3. The protocol: Microtiter plates (Nunc Immuno Sorb, ThermoFisher Scientific, USA) were coated with ASF (0.1 µM in PBS, pH 7.5, 50 µL/well) and incubated overnight. The wells were washed with 3×250 µL of PBS containing 0.05% Tween (repeated after each step). The wells were then blocked by 2% w/v BSA in PBS buffer (250 µL/well) for 1 h. Serial dilutions of the ligands (glycopolymers or oligosaccharides) in EPBS (2 mM EDTA in PBS) were incubated with Gal-1 or Gal-3 (1.25 µM final concentration) for 2 h. The residual bound galectin was labeled with anti-His antibody conjugated to horseradish peroxidase (Santa Cruz; 1:1000 dilution in PBS, 1 h). TMB One substrate solution (Kem-En-Tech, Denmark; 50 µL/well) was added, and the reactions were incubated until visible blue staining appeared (3–20 min). The reaction was stopped by adding 3 M HCl (50 µL per well), resulting in a color shift to yellow, which was determined spectrophotometrically by an absorbance microplate reader (Sunrise Tecan Group Ltd, CH). The intensity of the signal at 450 nm corresponded to the amount of galectin bound to the wells. Non-linear regression (dose–response inhibition-variable slope) of the sigmoidal curves was used to calculate the values of half-maximal inhibitory constants (IC50) from at least six independent experiments using GraphPad Prism 7 (GraphPad Software, USA).
For the affinity measurement, the competitive ELISA assay with ASF as an immobilized competitor ligand was employed.[51] […] The inhibitory potency of the prepared glycopolymers was compared to the respective monovalent standards (LN1-LN2-tBoc, LN2-LN2-tBoc, LDN-LN2-tBoc) to calculate their relative potencies (rp) for inhibition of Gal-3 (Table 1). Relative potency values thus disclose the extent of the so-called multivalency effect of the glycopolymer – the ability of a ligand bound to a multivalent carrier to get easier access and orientation to the lectin-binding site.[52]
A general note: An ELISA detects its analyte on a solid surface through an enzyme-linked reagent.

For a further test, the system named is J774A.1 macrophages. Put plainly: Gal-3-induced apoptosis of J774A.1 macrophages, Annexin V flow cytometry. The class given is cell-based, murine. Particulars: 10 µM Gal-3, 24 h, no glycopolymer. Here is the method: For flow cytometry studies, cultured undifferentiated (without any LPS and cytokines) J774A.1 murine macrophages were seeded in a concentration of 10^5 cells/well of the 24-well plate. After 24 h of cultivation, cells were pretreated with the desired concentration of glycopolymers for 5 minutes and afterward treated with 10 μM Gal-3 for 24 h. After harvesting of cells, early and late apoptoses of Gal-3-treated J774A.1 cells in the presence or absence of glycopolymers were evaluated using eBioscience Annexin V apoptosis detection kit (Thermo Fisher Scientific). Flow cytometry was performed using FACS Canto II (BD Biosciences, Franklin Lakes, NJ, USA). Apoptotic half-maximal inhibitory concentrations (IC50) of individual glycopolymers were calculated by nonlinear regression of log(glycopolymer concentration) versus apoptosis response using GraphPad Prism 8 software (version 8.0.1; GraphPad Software, La Jolla, CA, USA).
Tumor-associated macrophages (TAMs) are defined as M1 or M2 subtypes, which differ in their roles in carcinogenesis.[56] Phenotypically M2 macrophages, which are usually more abundant inside tumors and seem to be mainly responsible for the spread of cancer,[57] are chemoattracted into the tumor mass by the Gal-3 gradient.[11] Therefore, we aimed to investigate the inhibitory potential of prepared glycopolymers towards Gal-3 in the context of monocytes and macrophages. […]
In general terms: A flow cytometer gives signals particle by particle.

Test [1] has as its target T2, recombinant human Gal-3 biotinylated at the lysine of the N-terminal AVI-tag (human, UniProt P17931 1-250, biotin on the lysine of the AVI-tag (…)).
T2 construct: galectin-3, human; Gal-3-AVI construct in pET-Duet1; Held on streptavidin Dynabeads M-280 through the biotin; also called Gal-3-AVI; biotinylated Gal-3; source: E. coli BL21 (DE3) with birA biotin ligase, purified (Ni-NTA)
Nature of the test: depletion from solution by coated magnetic beads, ELISA of the supernatant; biotinylated Gal-3 on Dynabeads M-280 Streptavidin; increasing amount of beads incubated with glycosylated IFNγ, 1 h, room temperature; beads separated, IFNγ left in the supernatant measured by ELISA. Particulars: both partners purified.

The mark [2] stands for this setting: IC50 per glycan, Gal-3 1.25 µM, binding to immobilized ASF, read-out: IC50 [µM]/Glycan.

T1 sequence (P17931 whole entry): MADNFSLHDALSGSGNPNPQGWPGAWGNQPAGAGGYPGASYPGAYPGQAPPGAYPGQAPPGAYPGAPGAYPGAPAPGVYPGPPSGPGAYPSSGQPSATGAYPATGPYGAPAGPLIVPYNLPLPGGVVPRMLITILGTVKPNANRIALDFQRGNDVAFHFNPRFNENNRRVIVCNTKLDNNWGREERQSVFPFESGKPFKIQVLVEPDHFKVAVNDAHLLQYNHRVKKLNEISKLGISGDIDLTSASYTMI
T2 sequence (P17931 whole entry): as above

As for `CC(=O)N[C@@H]1[C@@H](O)[C@H](O[C@@H]2O[C@H](CO)[C@H](O)[C@H](O[C@@H]3O[C@H](CO)[C@@H](O)[C@H](O[C@@H]4O[C@H](CO)[C@H](O)[C@H](O)[C@H]4O)[C@H]3NC(C)=O)[C@H]2O)[C@@H](CO)O[C@H]1NC(=S)NCCNC(=O)OC(C)(C)C` [Glycopolymer 4, (tert-Butoxycarbonylamino)ethylthioureidyl β-D-Galactopyranosyl-(1→3)-2-Acetamido-2-Deoxy-β-D-Glucopyranosyl-(1→3)-β-D-Galactopyranosyl-(1→4)-2-Acetamido-2-Deoxy-β-D-Glucopyranoside], the “Selectivity for Gal-3” value on human Gal-3 worked out at 17. Moreover, the IC50 was 27.1 ± 4.4 µM at human Gal-3 (setting [2]) and 27.1 ± 4.4 µM on human Gal-3 (concentration required to inhibit Gal-3 binding to immobilized ASF by 50%, read-out: IC50).

Regarding `CC(=O)N[C@@H]1[C@@H](O)[C@H](O[C@@H]2O[C@H](CO)[C@H](O)[C@H](O[C@@H]3O[C@H](CO)[C@@H](O[C@@H]4O[C@H](CO)[C@H](O)[C@H](O)[C@H]4O)[C@H](O)[C@H]3NC(C)=O)[C@H]2O)[C@@H](CO)O[C@H]1NC(=S)NCCNC(=O)OC(C)(C)C` [Glycopolymer 5, (tert-Butoxycarbonylamino)ethylthioureidyl β-D-Galactopyranosyl-(1→4)-2-Acetamido-2-Deoxy-β-D-Glucopyranosyl-(1→3)-β-D-Galactopyranosyl-(1→4)-2-Acetamido-2-Deoxy-β-D-Glucopyranoside], at human Gal-3, the “Selectivity for Gal-3” value is 10. At human Gal-3 (setting [2]), the IC50 is 10.2 ± 3.2 µM. Turning to `CC(=O)N[C@@H]1[C@@H](O)[C@H](O[C@@H]2O[C@H](CO)[C@H](O)[C@H](O[C@@H]3O[C@H](CO)[C@@H](O[C@@H]4O[C@H](CO)[C@H](O)[C@H](O)[C@H]4NC(C)=O)[C@H](O)[C@H]3NC(C)=O)[C@H]2O)[C@@H](CO)O[C@H]1NC(=S)NCCNC(=O)OC(C)(C)C` [Glycopolymer 6, (tert-Butoxycarbonylamino)ethylthioureidyl 2-Acetamido-2-Deoxy-β-D-Galactopyranosyl-(1→4)-2-Acetamido-2-Deoxy-β-D-Glucopyranosyl-(1→3)-β-D-Galactopyranosyl-(1→4)-2-Acetamido-2-Deoxy-β-D-Glucopyranoside], on human Gal-3, the “Selectivity for Gal-3” value worked out at 13. In addition, the IC50 at human Gal-3 (setting [2]) came to 7.4 ± 0.5 µM.

For the molecule “Gal-3: Recombinant human galectin-3, N-terminal His-tagged protein construct produced in E. coli; used to induce apoptosis”, the “apoptosis of J774A.1 cells induced by Gal-3” value in the test with J774A.1 macrophages was 20.7 ± 0.8% and 15–25%.

B1: glycosylated human IFNγ (natural protein, UniProt P01579 24-161, looked up)
chain: QDPYVKEAENLKKYFNAGHSDVADNGTLFLGILKNWKEESDRKIMQSQIVSFYFKLFKNFKDDQSIQKSVETIKEDMNVKFFNSNKKKRDDFEKLTNYSVTDLNVQRKAIHELIQVMAELSPAAKTGKRKRSQMLFRG
modifications: glycosylated
notes: interferon-gamma, human, glycosylated; also called interferon-gamma; INFγ; source: bought: Sigma-Aldrich
B1: the binding result in test [1] was “binds”.
